Laboratory results from patent publication US11000033B2, “Ketone or oxime compound, and herbicide” (NISSAN CHEMICAL CORPORATION, priority 2014, dated 2021).

How the values were obtained:
Type in all cases: in vivo
Amaranthus retroflexus [1] = test: Test Example 5: herbicidal effect by foliage application, plastic box (symbol N); settings: 320 g/ha, 3 weeks after application
Method in brief: (§1)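 Seeds were sown in sterilized diluvial soil, covered with about 1.5 cm of soil and grown 14 days in a greenhouse at 25° C. to 30° C. An emulsifiable formulation diluted in water to a set rate was sprayed over foliage, and injury was scored 3 weeks later.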

Scirpus juncoides [2] = test: Test Example 1: herbicidal activity, application before weed generation in submerged conditions (symbol B); settings: application herbicide amount 320 g/ha
Method in brief: (§2)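 Scores run 0 to 5 by herbicidal ratio, with 5 meaning 90% or more and 0 meaning 5% or lower, read 3 weeks after treatment. Compound was applied as a diluted emulsion to the water surface of submerged alluvial-soil pots on the day weed seeds were sown.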

Apera spica-venti = test: Test Example 4: herbicidal effect by soil treatment (symbol L); settings: application herbicide amount 320 g/ha
Source text: Herbicidal Effect Test by Soil Treatment
Sterilized diluvial soil was placed in a plastic box having a length of 21 cm, a width of 13 cm, and a depth of 7 cm. Each of the seeds of Digitaria ciliaris, Setaria viridis, Echinochloa crus-galli var. crus-galli, Avena fatua, Alopecurus myosuroides, Lolium multiflorum Lam., Apera spica-venti, Abutilon theophrasti, Amaranthus retroflexus, Chenopodium album, Stellaria media, Galium spurium, Veronica persica, corn, soybean, rice, wheat, beet, and rapeseed was sowed in a spot-like manner and was covered with the soil of a thickness of about 1.5 cm. Subsequently, the emulsion agent of the compound present invention prepared in accordance with Formulation Example 2 was diluted with water so as to be a predetermined herbicide amount and the diluted emulsion agent was uniformly applied to the surface of the soil with a small-size spray. The plastic box was placed in a greenhouse of 25° C. to 30° C. to grow plant. 3 weeks later from the herbicide application, the effect to each plant was investigated in accordance with the criteria of Test Example 1.

Setaria viridis = test: Test Example 4: herbicidal effect by soil treatment (symbol G)
Method in brief: (§3)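 Seeds were sown in sterilized diluvial soil, covered with about 1.5 cm of soil, and the soil surface was sprayed with a water-diluted emulsion of the compound at a predetermined rate. Plants grew in a greenhouse at 25° C. to 30° C.; effects were scored visually 3 weeks after application.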

Alopecurus myosuroides = test: Test Example 5: herbicidal effect by foliage application, plastic box (symbol J); settings: 320 g/ha, 3 weeks after application
Method in brief: as §1

Amaranthus retroflexus [3] = test: Test Example 4: herbicidal effect by soil treatment (symbol N)
Method in brief: as §3

wheat = test: Test Example 4: effect on crop by soil treatment (symbol e); settings: for e: wheat, effect grade on crop: 320 g/ha
Method in brief: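 Steps: fill box with sterilized diluvial soil; sow seed spot-like; cover with ~1.5 cm soil; grow in greenhouse (25° C. to 30° C.).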

transplanted rice plant = test: Test Example 1: effect on crop, application before weed generation in submerged conditions (symbol a); settings: application herbicide amount 320 g/ha
Method in brief: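 Alluvial soil pots flooded to 4 cm water, sown with Echinochloa oryzacola, Scirpus juncoides and Monochoria vaginalis, then transplanted with 2.5 leaf stage rice seedlings; pre-emergence application. Greenhouse 25° C. to 30° C.; scored 0–5 by herbicidal ratio 3 weeks after application.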

Cyperus difformis = test: Test Example 3: herbicidal effect by foliage application, Wagner pot (symbol E); settings: application herbicide amount 320 g/ha; for E herbicidal effect grade: Table 24
Method in brief: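 Post-emergence, paddy-type test: seedlings 14 d old in shallow-flooded (0.1–0.5 cm) alluvial soil, 25–30 °C greenhouse. Emulsion diluted to target rate, sprayed on leaves. Read-out: visual effect on each species at 3 weeks, per set criteria.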

[4] = system: Echinochloa crus-galli var. crus-galli; test: Test Example 5: herbicidal effect by foliage application, plastic box (symbol H); settings: 320 g/ha, 3 weeks after application
Method in brief: as §1

[5] = system: Echinochloa oryzacola Vasing.; test: Test Example 1: herbicidal activity, application before weed generation in submerged conditions (symbol A); settings: application herbicide amount 320 g/ha
Method in brief: as §2

Scirpus juncoides [6] = test: Test Example 2: herbicidal activity, application during weed generation in submerged conditions (symbol B); settings: Table 23; application herbicide amount 320 g/ha; grade 0-5 by criteria of Test Example 1
Method in brief: (§4)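 Steps: fill pots with alluvial soil; add water to 4 cm depth; co-sow the three weeds; grow at 25° C. to 30° C. under glass; at 1–2 leaves, dose the floodwater with diluted emulsion; rate damage visually after 3 weeks.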

[7] = system: Echinochloa oryzacola Vasing.; test: Test Example 2: herbicidal activity, application during weed generation in submerged conditions (symbol A); settings: Table 23; application herbicide amount 320 g/ha; grade 0-5 by criteria of Test Example 1
Method in brief: as §4

[8] = application herbicide amount 320 g/ha

Compound	N: Amaranthus retroflexus, herbicidal effect grade (Amaranthus retroflexus [1])	B (Scirpus juncoides) herbicidal effect grade (Scirpus juncoides [2])	J: Alopecurus myosuroides, herbicidal effect grade (Alopecurus myosuroides)	a (transplanted rice plant) effect on crop grade (transplanted rice plant)	E herbicidal effect grade (Cyperus difformis)	H: Echinochloa crus-galli var. crus-galli, herbicidal effect grade [4]	A (Echinochloa oryzacola Vasing.) herbicidal effect grade [5]	N: Amaranthus retroflexus, herbicidal effect grade (Amaranthus retroflexus [3]; [8])	e: wheat, effect on crop grade (wheat; [8])	Herbicidal effect grade, B: Scirpus juncoides (Scirpus juncoides [6])	Herbicidal effect grade, A: Echinochloa oryzacola Vasing. [7]	G: Setaria viridis, herbicidal effect grade (Setaria viridis; [8])	N: Amaranthus retroflexus, herbicidal effect (criteria 0-5) (Amaranthus retroflexus [1])	Herbicidal effect grade, B: Scirpus juncoides (Scirpus juncoides [2])	G: Setaria viridis, herbicidal effect grade (Setaria viridis; 320 g/ha)	J: Alopecurus myosuroides, herbicidal effect (criteria 0-5) (Alopecurus myosuroides)	N: Amaranthus retroflexus, herbicidal effect grade (Amaranthus retroflexus [3]; 320 g/ha)	e: wheat, effect grade on crop (wheat)	Effect grade on crop, a: transplanted rice plant (transplanted rice plant)	herbicidal effect on E, grade 0-5 (Cyperus difformis)	further results
CC(CC1CC(OC(=O)N2CCOCC2)=C(c2c(C)cc(-c3ccc(Cl)cc3)cc2C)C1=O)=NOCC(F)(F)F (mixture of isomers) [9-025]	0 (Herbicidal ratio of 5% or lower (almost no effect))	1 (Herbicidal ratio of 5% or higher and lower than 20%)	0 (Herbicidal ratio of 5% or lower (almost no effect))	0 (Herbicidal ratio of 5% or lower (almost no effect))	0 (Herbicidal ratio of 5% or lower (almost no effect))	1 (Herbicidal ratio of 5% or higher and lower than 20%)	5 (Herbicidal ratio of 90% or more (almost completely withered))														Herbicidal effect grade, L: Apera spica-venti (Apera spica-venti): 0 (Herbicidal ratio of 5% or lower (almost no effect)); Herbicidal effect grade, G: Setaria viridis (Setaria viridis; [8]): 0 (Herbicidal ratio of 5% or lower (almost no effect)); Herbicidal effect grade, N: Amaranthus retroflexus (Amaranthus retroflexus [3]; [8]): 0 (Herbicidal ratio of 5% or lower (almost no effect)); Effect on crop grade, e: wheat (wheat; [8]): 0 (Herbicidal ratio of 5% or lower (almost no effect))
CCC(CC1CC(O)=C(c2c(C)cc(Br)cc2OC)C1=O)=NOC (mixture of isomers) [13-001]	0 (Herbicidal ratio of 5% or lower (almost no effect))	2 (Herbicidal ratio of 20% or higher and lower than 40%)	5 (Herbicidal ratio of 90% or more (almost completely withered))	5 (Herbicidal ratio of 90% or more (almost completely withered))	4 (Herbicidal ratio of 70% or higher and lower than 90%)	5 (Herbicidal ratio of 90% or more (almost completely withered))	5 (Herbicidal ratio of 90% or more (almost completely withered))	0 (Herbicidal ratio of 5% or lower (almost no effect))	0 (Herbicidal ratio of 5% or lower (almost no effect))	0 (Herbicidal ratio of 5% or lower (almost no effect))	5 (Herbicidal ratio of 90% or more (almost completely withered))										L: Apera spica-venti, herbicidal effect grade (Apera spica-venti): 5 (Herbicidal ratio of 90% or more (almost completely withered))
CON=C(CC1CC(OC(=O)N2CCOCC2)=C(c2c(C)cc(C)cc2OC)C1=O)C1CC1 (mixture of isomers) [13-005]	0 (Herbicidal ratio of 5% or lower (almost no effect))	0 (Herbicidal ratio of 5% or lower (almost no effect))	5 (Herbicidal ratio of 90% or more (almost completely withered))	5 (Herbicidal ratio of 90% or more (almost completely withered))	5 (Herbicidal ratio of 90% or more (almost completely withered))	5 (Herbicidal ratio of 90% or more (almost completely withered))	5 (Herbicidal ratio of 90% or more (almost completely withered))	0 (Herbicidal ratio of 5% or lower (almost no effect))	1 (Herbicidal ratio of 5% or higher and lower than 20%)	2 (Herbicidal ratio of 20% or higher and lower than 40%)	5 (Herbicidal ratio of 90% or more (almost completely withered))	0 (Herbicidal ratio of 5% or lower (almost no effect))									
CON=C(CC1CC(OC(=O)C(C)(C)C)=C(c2c(C)cc(C)cc2OC)C1=O)C1CC1 (mixture of isomers) [13-006]	3 (Herbicidal ratio of 40% or higher and lower than 70%)	5 (Herbicidal ratio of 90% or more (almost completely withered))	5 (Herbicidal ratio of 90% or more (almost completely withered))	5 (Herbicidal ratio of 90% or more (almost completely withered))	5 (Herbicidal ratio of 90% or more (almost completely withered))	5 (Herbicidal ratio of 90% or more (almost completely withered))	5 (Herbicidal ratio of 90% or more (almost completely withered))	0 (Herbicidal ratio of 5% or lower (almost no effect))	4 (Herbicidal ratio of 70% or higher and lower than 90%)	3 (Herbicidal ratio of 40% or higher and lower than 70%)	5 (Herbicidal ratio of 90% or more (almost completely withered))	5 (Herbicidal ratio of 90% or more (almost completely withered))									
CON=C(CC1CC(O)=C(c2c(C)cc(C)cc2C)C1=O)c1ccc(F)cc1 (centres unmarked) [1-133]										0 (Herbicidal ratio of 5% or lower (almost no effect))	1 (Herbicidal ratio of 5% or higher and lower than 20%)		0 (Herbicidal ratio of 5% or lower (almost no effect))	0 (Herbicidal ratio of 5% or lower (almost no effect))	4 (Herbicidal ratio of 70% or higher and lower than 90%)	4 (Herbicidal ratio of 70% or higher and lower than 90%)	0 (Herbicidal ratio of 5% or lower (almost no effect))	0 (Herbicidal ratio of 5% or lower (almost no effect))	1 (Herbicidal ratio of 5% or higher and lower than 20%)	0 (Herbicidal ratio of 5% or lower (almost no effect))	H: Echinochloa crus-galli var. crus-galli, herbicidal effect (criteria 0-5) [4]: 4 (Herbicidal ratio of 70% or higher and lower than 90%); Herbicidal effect grade, A: Echinochloa oryzacola Vasing. [5]: 4 (Herbicidal ratio of 70% or higher and lower than 90%)
CON=C(C)CC1CC(OC(=O)CSc2ccccc2)=C(c2c(C)cc(C)cc2C)C1=O (centres unmarked) [1-134]										4 (Herbicidal ratio of 70% or higher and lower than 90%)	5 (Herbicidal ratio of 90% or more (almost completely withered))		1 (Herbicidal ratio of 5% or higher and lower than 20%)	5 (Herbicidal ratio of 90% or more (almost completely withered))	5 (Herbicidal ratio of 90% or more (almost completely withered))	5 (Herbicidal ratio of 90% or more (almost completely withered))	4 (Herbicidal ratio of 70% or higher and lower than 90%)	2 (Herbicidal ratio of 20% or higher and lower than 40%)	5 (Herbicidal ratio of 90% or more (almost completely withered))	5 (Herbicidal ratio of 90% or more (almost completely withered))	H: Echinochloa crus-galli var. crus-galli, herbicidal effect (criteria 0-5) [4]: 5 (Herbicidal ratio of 90% or more (almost completely withered)); Herbicidal effect grade, A: Echinochloa oryzacola Vasing. [5]: 5 (Herbicidal ratio of 90% or more (almost completely withered))
